Results reported in PubChem BioAssay (NCI).
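48-hour exposure; five concentrations; linearly interpolated endpoints. TGI marks complete inhibition of growth.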

Key:
Experiment in all cases: DTP human tumour cell line panel, 48 h
[1] = tested on: 786-0 renal
[2] = tested on: A498 renal
[3] = tested on: A549 NSCLC
[4] = tested on: ACHN renal
[5] = tested on: BT-549 breast
[6] = tested on: CAKI-1 renal
[7] = tested on: CCRF-CEM leukemia
[8] = tested on: COLO 205 colon
[9] = tested on: DU-145 prostate
[10] = tested on: EKVX NSCLC
[11] = tested on: HCT-116 colon
[12] = tested on: HCT-15 colon
[13] = tested on: HL-60(TB) leukemia
[14] = tested on: HS 578T breast
[15] = tested on: HT29 colon
[16] = tested on: IGROV1 ovarian
[17] = tested on: K-562 leukemia
[18] = tested on: KM12 colon
[19] = tested on: M14 melanoma
[20] = tested on: MALME-3M melanoma
[21] = tested on: MDA-MB-231 breast
[22] = tested on: MDA-MB-435
[23] = tested on: MDA-N
[24] = tested on: MOLT-4 leukemia
[25] = tested on: NCI-H226 lung
[26] = tested on: NCI-H23 lung
[27] = tested on: NCI-H460 lung
[28] = tested on: NCI-H522 lung
[29] = tested on: NCI/ADR-RES ovarian
[30] = tested on: OVCAR-4 ovarian
[31] = tested on: OVCAR-5 ovarian
[32] = tested on: OVCAR-8 ovarian
[33] = tested on: PC-3 prostate
[34] = tested on: RPMI-8226 leukemia
[35] = tested on: RXF 393 renal
[36] = tested on: SF-268 CNS
[37] = tested on: SF-295 CNS
[38] = tested on: SF-539 CNS
[39] = tested on: SK-MEL-2 melanoma
[40] = tested on: SK-MEL-5 melanoma
[41] = tested on: SK-OV-3 ovarian
[42] = tested on: SN12C renal
[43] = tested on: SNB-19 CNS
[44] = tested on: SR leukemia
[45] = tested on: SW-620 colon
[46] = tested on: T-47D breast
[47] = tested on: TK-10 renal
[48] = tested on: UACC-257 melanoma
[49] = tested on: UACC-62 melanoma
[50] = tested on: UO-31 renal
[51] = tested on: HCC-2998 colon
[52] = tested on: HOP-62 NSCLC
[53] = tested on: HOP-92 NSCLC
[54] = tested on: LOX IMVI melanoma
[55] = tested on: MCF7 breast
[56] = tested on: OVCAR-3 ovarian
[57] = tested on: SK-MEL-28 melanoma
[58] = tested on: SNB-75 CNS
[59] = tested on: U251 CNS

Measured: TGI

O=C(NCCC1([N+](=O)[O-])CCN(C(=O)c2ccccc2)CC1)c1ccccc1
87.8 µM: [48]
not listed: [51] | [52] | [53] | [54] | [55] | [56] | [57] | [58] | [59]
> 100 µM: all other assays above

O=S(=O)(O)c1cc(O)c2c(N=Cc3ccccc3O)cc(S(=O)(=O)O)cc2c1
not listed: [14]
> 100 µM: all other assays above

CC(C)/C(Cl)=N\OC(=O)Nc1ccccc1F
24.9 µM: [4]
30 µM: [9]
> 57.3 µM: [43]
92.6 µM: [34]
36.2 µM: [27]
33.4 µM: [16] | [41]
30.3 µM: [37]
30.6 µM: [23]
3.59 µM: [45]
28.8 µM: [25]
12.4 µM: [24]
32.1 µM: [38]
35.6 µM: [3]
4.13 µM: [13]
31.1 µM: [59]
36.6 µM: [49]
> 55.6 µM: [52]
31.4 µM: [32]
38.3 µM: [6]
22.6 µM: [21]
6.54 µM: [44]
30.4 µM: [57]
8.72 µM: [20]
28.3 µM: [2]
27.6 µM: [5] | [47]
31.3 µM: [12]
> 69.3 µM: [14]
23.1 µM: [58]
40.3 µM: [18]
27.9 µM: [40]
13.3 µM: [19]
26.8 µM: [42]
6.92 µM: [54]
9.97 µM: [35]
33.2 µM: [39] | [48]
4.2 µM: [8]
19.6 µM: [51]
54.3 µM: [15]
29.6 µM: [50]
23.9 µM: [11]
16 µM: [55]
30.9 µM: [33]
3.44 µM: [7]
4.06 µM: [53]
33.3 µM: [31]
29.9 µM: [1]
33.7 µM: [26]
30.7 µM: [10] | [29]
49.5 µM: [46]
34.4 µM: [56]
41.9 µM: [36]
6.52 µM: [17]
31.7 µM: [30]

Cc1[nH]c2c(c1C)S(=O)(=O)c1cc3ccccc3nc1N2
62.5 µM: [19]
66.8 µM: [35]
70.6 µM: [43]
36.9 µM: [42]
67.3 µM: [57]
39.8 µM: [52]
40.4 µM: [34]
45.8 µM: [7]
25.2 µM: [38]
45.2 µM: [20] | [56]
28.2 µM: [15]
59 µM: [31]
46.3 µM: [8]
32.4 µM: [30]
28 µM: [16]
56.9 µM: [50]
45.7 µM: [58]
66.5 µM: [25]
76.1 µM: [21]
39.4 µM: [23]
28.8 µM: [40]
23.8 µM: [59]
52 µM: [28]
30.4 µM: [1] | [32]
36.4 µM: [54]
not listed: [13] | [14]
> 100 µM: all other assays above

CC[C@H](O)[C@H](C)C=C1SCCCS1
89.7 µM: [13]
not listed: [27] | [38] | [43] | [46]
> 100 µM: all other assays above

CC(=O)OCCOCn1c2c(c(=S)[nH]c1=O)CCC2
not listed: [2] | [27] | [29] | [41] | [46] | [49]
> 100 µM: all other assays above

CC(=O)OCCCOCn1c(Cc2ccccc2)c(C)c(=O)[nH]c1=O
not listed: [13] | [29]
> 100 µM: all other assays above
